Laboratory results reported in US6809097B1, “Quinoline derivatives inhibiting the effect of growth factors such as VEGF” (Zeneca Limited, priority 1996, dated 2004).

Row | melting point | Compound
1 | 312 to 318 °C | COc1cc2nccc(Nc3cc(O)c(Cl)cc3F)c2cc1OC.Cl
2 | > 280 °C | COc1cc2nccc(Nc3cc(O)c(C)cc3F)c2cc1OC.Cl
3 | 300 to 302 °C | COCCOc1cc2nccc(Nc3cc(O)c(C)cc3F)c2cc1C#N.Cl
4 | 222 to 225 °C | COc1cc2c(Nc3ccc(Cl)cc3F)ccnc2cc1OCc1ccccc1.Cl
5 | 140 °C | COc1cc2nccc(Oc3cccc(O)c3)c2cc1OC [Example 26, 6,7-dimethoxy-4-(3-hydroxyphenoxy)quinoline]
6 | 278 to 281 °C | COc1cc2nccc(Nc3cc(O)c(C)cc3F)c2cc1C#N.Cl
7 | 280 to 283 °C | COc1cc2nccc(Nc3cccc(O)c3)c2cc1OC.Cl
8 | 210 to 217 °C | COc1cc2c(Oc3cc(O)c(C)cc3F)ccnc2cc1OCCCN1CCOCC1 [Example 3, 4-(2-fluoro-5-hydroxy-4-methylphenoxy)-6-methoxy-7-(3-morpholinopropoxy)quinoline]
9 | 247 to 250 °C | COCCOc1cc2nccc(Nc3ccc(Cl)cc3F)c2cc1C#N.Cl
10 | 159 to 163 °C | COCCOc1cc2nccc(Oc3cccc(O)c3)c2cc1C#N [Example 50, 6-cyano-4-(3-hydroxyphenoxy)-7-(2-methoxyethoxy)quinoline]
11 | 275 to 278 °C | COCCOc1cc2nccc(Nc3ccc(C)c(O)c3)c2cc1C#N.Cl
12 | 230 to 232 °C | COc1cc2c(Nc3ccc(C)c(OC(C)=O)c3)ccnc2cc1OCc1ccccc1.Cl
13 | > 250 °C | COc1cc2c(Nc3ccc(Cl)cc3F)ccnc2cc1OCCN(C)C.Cl
